Reference: PubChem BioAssay (NCI)
“And” between values parts separate entries of the source, which are not always exact repeats. Identical values can stand only once.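 Test compounds were applied to cells in 96-well plates for 48 hours at 5 doses. At the GI50, growth is halved. TGI: concentration producing complete growth inhibition.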

Assays:
Experiment in all cases: NCI anticancer screen, dose series, 48 h
RPMI-8226 leukemia = test system: RPMI-8226 leukemia
MCF7 breast = test system: MCF7 breast
IGROV1 ovarian = test system: IGROV1 ovarian
RXF 393 renal = test system: RXF 393 renal
786-0 renal = test system: 786-0 renal
U251 CNS = test system: U251 CNS
BT-549 breast = test system: BT-549 breast
TK-10 renal = test system: TK-10 renal
SK-MEL-2 melanoma = test system: SK-MEL-2 melanoma
EKVX NSCLC = test system: EKVX NSCLC

Row | Structure (SMILES) | TGI (RPMI-8226 leukemia) | TGI (MCF7 breast) | TGI (IGROV1 ovarian) | TGI (RXF 393 renal) | TGI (786-0 renal) | TGI (U251 CNS) | TGI (BT-549 breast) | TGI (TK-10 renal) | TGI (SK-MEL-2 melanoma) | TGI (EKVX NSCLC) | GI50 (BT-549 breast)
1 | CCOP(=O)(/C=C/n1cc(C)c(=O)[nH]c1=O)OCC | > 100 µM | > 100 µM | > 100 µM | > 100 µM | > 100 µM | > 100 µM | > 100 µM | > 100 µM | > 100 µM | > 100 µM | 
2 | Cc1c(C)c2c(c(N)c1C#N)C(=O)N(N)C2=O | > 100 µM | > 100 µM | > 100 µM | > 100 µM | > 100 µM | > 100 µM | > 100 µM | > 100 µM | > 100 µM | > 100 µM | 
3 | O=C1c2ccccc2-c2nc3ccncc3n21 | > 100 µM | > 100 µM | > 100 µM | > 100 µM | > 100 µM | > 100 µM | > 100 µM | > 100 µM | > 100 µM | > 100 µM | 
4 | C[n+]1cccc2ccc3cccnc3c21 | > 100 µM | > 100 µM | > 100 µM | > 100 µM | > 100 µM | > 100 µM | > 100 µM | > 100 µM | 97.1 µM | > 100 µM | 
5 | Cc1cn(CCCCCCOC(=O)NC(CCCNC(N)=O)C(=O)O)c(=O)[nH]c1=O (stereo unspecified) | > 100 µM | > 100 µM | > 100 µM | > 100 µM | > 100 µM | > 100 µM | > 100 µM | > 100 µM | > 100 µM | > 100 µM | 
6 | CC(Nc1ccc(Cl)cc1)c1ccncc1 (stereo unspecified) | 98.3 µM | > 100 µM | > 100 µM | > 100 µM | > 100 µM | > 100 µM | > 100 µM | > 100 µM | > 100 µM | > 100 µM | 
7 | CCc1nc(N)c2nc(-c3cccs3)oc2n1 | > 100 µM | > 100 µM | > 100 µM | > 100 µM | > 100 µM | > 100 µM | > 100 µM | > 100 µM | > 100 µM | > 100 µM | 
8 | Nc1[nH]c(=O)nc2c1ncn2C1OC(CO)C(O)C1O (stereo unspecified) | > 100 µM | > 100 µM | > 100 µM | > 100 µM | > 100 µM | > 100 µM | > 100 µM | > 100 µM | > 100 µM | > 100 µM | 
9 | C=C1c2nc3ccccc3n2C=C(c2ccc(C)cc2)N1c1ccc(OC)cc1 | > 58.5 µM | > 100 µM | > 100 µM | > 100 µM | > 100 µM | > 100 µM | > 100 µM | > 100 µM | > 100 µM | > 100 µM | 
10 | C=C(Br)CN=CN(C)C | > 100 µM | > 100 µM | > 100 µM | > 100 µM | > 100 µM | > 100 µM | > 100 µM | > 100 µM | > 100 µM | > 100 µM | 
11 | COc1cc(CCNC2=CC(=O)c3nc[nH]c3C2=O)ccc1O | 68.7 µM | 33.5 µM | 52.8 µM | > 100 µM | > 100 µM | 63.3 µM | 42 µM | 87.5 µM | 52.1 µM | 47.4 µM | 
12 | CCN(CC)C(=S)SC(C(=O)Nc1nnc(-c2ccc(Cl)cc2)o1)c1ccccc1 (stereo unspecified) | 22 µM | > 100 µM | 8.33 µM | 48.8 µM | 39 µM | 65.3 µM | 66.7 µM | 62.3 µM | > 100 µM | 29.4 µM | 
13 | CC(C)(CO[C@H]1C[C@H]2CC[C@@]1(C)C2(C)C)[N+](=O)[O-] | 38.7 µM | 49.9 µM | > 100 µM | 26.1 µM | 27.9 µM | 31.5 µM | 45.5 µM | 34 µM | 31.3 µM | 46.2 µM | 
14 | COc1cccc2c1C(=O)c1c(O)c3c(c(O)c1C2=O)C[C@@](O)(C(C)=O)CC3OC1CC(OC2CC(N)C(O)C(C)O2)C(O)C(C)O1 (stereo partly specified) | > 74.5 µM | > 59.6 µM | > 100 µM | > 100 µM | > 100 µM | > 87.6 µM | > 100 µM | > 100 µM | > 100 µM | > 100 µM | 
15 | Clc1ccc2c(c1)N(CCCN1CCCC13CCCCC3)c1ccccc1S2 | 11.3 µM | 32.3 µM | 30.3 µM | 17.6 µM | 23.7 µM | 23.6 µM | 32.5 µM | 29.7 µM | 22.1 µM | > 44 µM | 
16 | COP(=O)(OC)OCN(C)CC/C=C(\C)CC/C=C(\C)CCC=C(C)C | 28.3 µM | 28.5 µM | 25.8 µM | 49.1 µM | 31.3 µM | 37.6 µM | 30 µM | 21.9 µM | 28.2 µM | 63.3 µM | 
17 | Nc1c(C(=O)c2ccc(Cl)c(Cl)c2)[nH]c(NCc2ccccc2)c1C(=S)Nc1ccccc1 | 6.03 µM | 12.3 µM | 26.5 µM | 27.3 µM | 27.9 µM | 15.7 µM | 30.5 µM | 33.4 µM | 25.9 µM | 29.6 µM | 
18 | CC(=O)NC1C(OCc2ccccc2)OC(CO)C(O)C1OC(C)C(=O)N[C@@H](C)C(=O)N[C@H](CCC(=O)NCCNCCNc1c2ccccc2nc2cccc([N+](=O)[O-])c12)C(N)=O (stereo partly specified) | 0.381 µM | 2.17 µM | 0.672 µM | 0.0844 µM | 0.921 µM | 3.41 µM | 0.221 µM | 3.54 µM | 0.138 µM | 2.74 µM | 
19 | CC(=O)n1[nH]c(=O)n(-c2ccc(Cl)cc2)c1=O | > 100 µM | > 100 µM | > 100 µM | > 100 µM | > 100 µM | > 100 µM | > 100 µM | > 100 µM | > 100 µM | > 100 µM | 
20 | Clc1ccc2c(NCCCCCCNc3ccnc4cc(Cl)ccc34)ccnc2c1 | 6.53 µM | 7.27 µM | 14.5 µM | 6.35 µM | 4.15 µM | 5.82 µM | 27.5 µM | 18.2 µM | 12.7 µM | 25.9 µM | 
21 | Oc1ccc(C(O)C2CCCCN2)cc1O (stereo unspecified) | > 100 µM | > 100 µM | > 100 µM | > 100 µM | 35.2 µM | > 100 µM | > 100 µM | > 100 µM | > 100 µM | > 100 µM | 
22 | COC(=O)C1OC(O[C@H]2CC[C@]3(C)[C@H]4CC=C5[C@@H]6CC(C)(C)CC[C@]6(C(=O)OC6OCC(O)C(O)C6OC6OC(C)C(OC7OCC(O)C(O)C7O)C(O)C6O)[C@H](O)C[C@@]5(C)[C@]4(C)CC[C@H]3C2(C)C)C(O)C(O)C1O (stereo partly specified) | > 100 µM and 21.3 µM | 10.3 µM and 4.43 µM | > 80.4 µM and 26.8 µM | 29 µM and 31.2 µM | 19 µM and 21.8 µM | 17.7 µM and 19.8 µM | 8.86 µM and 21.8 µM | 21.3 µM and 21.5 µM | 7.83 µM and 7.96 µM | 8.04 µM and 11.1 µM | 3.06 µM and 7.31 µM
23 | COc1ccc(CCNC(=O)Cc2ccccc2CO)cc1OC | > 100 µM | > 100 µM | > 100 µM | > 100 µM | > 100 µM | > 100 µM | > 100 µM | > 100 µM | > 100 µM | > 100 µM | 
24 | NC(=O)[C@H](Cc1ccc(O)cc1)Nc1c(O)c2c(c(O)c1Cl)C(=O)C=CC2=O | 7 µM | 2.97 µM | 4.66 µM | 9.56 µM | 4.62 µM | > 8.11 µM | 5.26 µM | > 6.51 µM | > 10 µM | > 10 µM | 
25 | CC(=O)CC1(CBr)Nc2ccc([N+](=O)[O-])cc2NC1=O (stereo unspecified) | > 100 µM | > 100 µM | > 100 µM | > 100 µM | > 100 µM | > 100 µM | > 100 µM | > 100 µM | > 100 µM | > 100 µM | 
